We go through 12 molecules from ChEMBL document CHEMBL1201862, “PubChem BioAssay data set” (2004).

Active and inactive are the calls of the source.

Experiment [1] has as its target Mitogen-activated protein kinase 10 (Homo sapiens, UniProt P53779). The experiment can be described thus: Dose response biochemical screening assay for inhibitors of c-Jun N-Terminal Kinase 3 (JNK3). [Related pubchem assays: 746 ].
A short description of experiment [2]: Artemis endonuclease inhibitor potency, dose response, biochemical, fluorescence intensity (AID 720701).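 Further: Artemis endonuclease enzyme.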 The class given is functional.
In experiment [3] the target is Heat shock protein HSP 90-alpha (Homo sapiens, UniProt P07900). Description: Luminescence-based dose response biochemical high throughput screening assay for inhibitors of the Heat Shock Protein 90 (HSP90). [Related pubchem assays: 1831 (Summary AID.), 1846 (Confirmation screen.), 1789 (Primary screen.)].
Experiment [4] deals with T1, Luciferin 4-monooxygenase (Photuris pensylvanica, UniProt Q27757).
T1 sequence (Q27757 whole entry): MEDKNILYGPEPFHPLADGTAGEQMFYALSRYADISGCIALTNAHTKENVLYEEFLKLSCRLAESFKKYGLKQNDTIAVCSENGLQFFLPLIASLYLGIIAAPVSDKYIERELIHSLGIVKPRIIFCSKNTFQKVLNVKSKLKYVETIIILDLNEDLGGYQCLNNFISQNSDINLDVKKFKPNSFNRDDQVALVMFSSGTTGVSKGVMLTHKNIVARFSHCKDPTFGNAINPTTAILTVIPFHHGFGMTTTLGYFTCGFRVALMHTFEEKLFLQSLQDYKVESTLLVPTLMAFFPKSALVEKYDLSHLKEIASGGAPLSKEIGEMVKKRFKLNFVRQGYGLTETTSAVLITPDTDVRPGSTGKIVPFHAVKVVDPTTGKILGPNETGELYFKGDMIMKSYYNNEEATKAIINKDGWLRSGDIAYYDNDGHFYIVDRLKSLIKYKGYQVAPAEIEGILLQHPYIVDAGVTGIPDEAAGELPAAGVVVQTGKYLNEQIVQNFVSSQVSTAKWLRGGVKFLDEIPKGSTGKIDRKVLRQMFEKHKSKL
The experiment can be described thus: firefly luciferase enzyme inhibitors, dose response, counter-screen for HSF-1 reporter inhibitor project, biochemical, Cell Titer Glo, luminescence, cherry-picks (AID 588847).

The target of experiment [5] is T2, Induced myeloid leukemia cell differentiation protein Mcl-1 (Homo sapiens, UniProt Q07820). Description: MCL1-BIM BH3 interaction inhibitors, dose response, biochemical, fluorescence polarization, BIM-BH3 peptide, 1536-well (AID 2217).
T2 sequence (Q07820 whole entry): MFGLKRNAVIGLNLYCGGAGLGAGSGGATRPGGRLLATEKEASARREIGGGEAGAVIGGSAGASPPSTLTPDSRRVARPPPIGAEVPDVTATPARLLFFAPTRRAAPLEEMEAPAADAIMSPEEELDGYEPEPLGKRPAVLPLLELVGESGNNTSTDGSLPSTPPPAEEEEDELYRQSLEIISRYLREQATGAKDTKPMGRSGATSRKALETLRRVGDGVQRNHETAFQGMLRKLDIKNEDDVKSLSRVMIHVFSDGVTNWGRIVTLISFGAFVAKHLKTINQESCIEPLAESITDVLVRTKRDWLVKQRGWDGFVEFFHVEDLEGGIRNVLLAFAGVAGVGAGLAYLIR
The target of experiment [6] is Bcl-2-like protein 1 (Homo sapiens, UniProt Q07817). The experiment can be described thus: BCL-XL inhibitors, dose response, selectivity assay for MCL1 inhibitor project, biochemical, fluorescence polarization, 1536-well (AID 2218). In general terms: Fluorescence polarisation rises when a labelled molecule tumbles more slowly, as on binding a larger partner.
Bcl-2-like protein 1, sequence (Q07817 whole entry): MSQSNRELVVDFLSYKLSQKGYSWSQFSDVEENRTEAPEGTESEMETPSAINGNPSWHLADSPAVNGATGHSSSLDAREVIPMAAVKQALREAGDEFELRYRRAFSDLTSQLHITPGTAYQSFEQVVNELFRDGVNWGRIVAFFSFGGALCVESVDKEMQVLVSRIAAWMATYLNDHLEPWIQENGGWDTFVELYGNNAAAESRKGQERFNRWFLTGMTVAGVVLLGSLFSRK
In experiment [7] the target is T2, Induced myeloid leukemia cell differentiation protein Mcl-1. It counts as functional.
Experiment [8] deals with T3, NADPH oxidase 1 (Homo sapiens, UniProt Q9Y5S8). Description: Late-stage luminescence-based cell-based dose response assay to identify inhibitors of NADPH oxidase 1 (NOX1): Synthesized analogs 2. It counts as functional.
T3 sequence (Q9Y5S8 whole entry): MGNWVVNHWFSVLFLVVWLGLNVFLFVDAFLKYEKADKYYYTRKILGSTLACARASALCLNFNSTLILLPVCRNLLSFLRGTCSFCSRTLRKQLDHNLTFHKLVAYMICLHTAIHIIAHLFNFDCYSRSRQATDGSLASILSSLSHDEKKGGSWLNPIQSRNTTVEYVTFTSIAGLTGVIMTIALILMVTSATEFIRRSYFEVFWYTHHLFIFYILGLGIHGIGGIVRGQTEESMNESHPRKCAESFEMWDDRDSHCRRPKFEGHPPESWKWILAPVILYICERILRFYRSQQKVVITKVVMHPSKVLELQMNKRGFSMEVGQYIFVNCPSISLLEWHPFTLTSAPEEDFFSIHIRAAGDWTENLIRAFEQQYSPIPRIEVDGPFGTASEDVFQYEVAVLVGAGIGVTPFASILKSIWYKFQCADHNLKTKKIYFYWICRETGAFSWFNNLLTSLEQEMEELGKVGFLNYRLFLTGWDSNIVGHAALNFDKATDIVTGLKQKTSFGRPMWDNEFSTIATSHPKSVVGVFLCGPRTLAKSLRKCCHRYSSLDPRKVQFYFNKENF
Experiment [9] addresses Aryl hydrocarbon receptor (Homo sapiens, UniProt P35869). Description: Luminescence-based cell-based high throughput dose response assay for activators of the Aryl Hydrocarbon Receptor (AHR). [Related pubchem assays: 2796 (Primary screen (AHR activators in singlicate)), 2845 (Confirmation screen (AHR activators in triplicate)), 434939 (Counterscreen (PXR activators in triplicate)), 2804 (Summary (AHR activators))]. The class given is ADME. For orientation: A counterscreen serves to expose hits that act by an unwanted route or on another target.

Experiment [10] concerns the target Neuropeptides B/W receptor type 1 (Homo sapiens, UniProt P48145). Description: Fluorescence-based dose response cell-based high throughput screening assay to identify antagonists of the G-protein coupled receptor 7 (GPR7). [Related pubchem assays: 1952 (Screening assay (GPR7 antagonists).), 1880 (Summary AID.)]. The class given is functional.
Experiment [11] deals with Melanin-concentrating hormone receptor 1 (Homo sapiens, UniProt Q99705). The experiment can be described thus: Fluorescence-based counterscreen for antagonists of the G-protein coupled receptor 7 (GPR7): cell-based high throughput dose response assay to identify antagonists of the melanin-concentrating hormone receptor 1 (MCHR1). It counts as functional.
Melanin-concentrating hormone receptor 1, sequence (Q99705 whole entry): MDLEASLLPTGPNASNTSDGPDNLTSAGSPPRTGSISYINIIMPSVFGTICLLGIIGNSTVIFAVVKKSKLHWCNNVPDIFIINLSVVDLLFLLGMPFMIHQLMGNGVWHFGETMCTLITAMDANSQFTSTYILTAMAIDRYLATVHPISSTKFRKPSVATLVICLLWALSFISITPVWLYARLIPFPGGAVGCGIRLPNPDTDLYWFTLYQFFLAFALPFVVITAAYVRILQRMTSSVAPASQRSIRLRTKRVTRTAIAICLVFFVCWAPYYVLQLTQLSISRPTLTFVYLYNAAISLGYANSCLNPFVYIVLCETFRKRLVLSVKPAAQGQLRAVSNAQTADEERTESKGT
A short description of experiment [12]: Vero cell cytotoxicity, dose response, cytotoxicity control for Vif-APOBEC3G degradation inhibitor project, Vero cells (AID 1117358). It counts as functional. As to conditions: Human immunodeficiency virus 1, Vero.
Experiment [13] concerns the target T3, NADPH oxidase 1. The class given is functional, cell-based.
Experiment [14] is described as follows: THP-1 cell cytotoxicity, dose response, cytotoxicity control for Vif-APOBEC3G degradation inhibitor project, THP-1 cells (AID 1117359). As to conditions: Human immunodeficiency virus 1, THP-1. It counts as functional.
Experiment [15] has as its system HEK293. Description: cells. As to conditions: Homo sapiens.
In experiment [16] the test system is HEK293. Description: cells. The conditions noted are these: Homo sapiens. The source holds these as a separate data set.
A short description of experiment [17]: P. falciparum Dd2 growth inhibitors, dose response, SYBR Green, dry powder samples, set 4 (AID 1159572). The class given is functional, cell-based.
Experiment [18] is described as follows: P. falciparum 3D7-ScDHODH growth inhibitors, dose response, SYBR Green, dry powder samples (AID 1159570).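 Further: parasite growth measured after 72 hours of compound exposure.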 The class given is functional, cell-based.
Experiment [19] can be described thus: HepG2 cell cytotoxicity, dose response, cytotoxicity control, plate reader, dry powder samples (AID 1159569).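 Further: inhibitor potency with signal falling toward the positive control level.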 The class given is functional, cell-based.
A short description of experiment [20]: P. falciparum Dd2 growth inhibitors, dose response, SYBR Green, dry powder samples, set 9 (AID 1159568). It counts as functional, cell-based.
A short description of experiment [21]: P. falciparum Dd2 growth inhibitors, dose response, SYBR Green, cherry-picked samples (AID 1159567). The class given is functional, cell-based.
The nature of experiment [22]: P. falciparum Dd2 growth inhibitors, dose response, SYBR Green, dry powder samples (AID 1159566).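 Further: potency for growth inhibition with lower SYBR green DNA signal.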 It counts as functional, cell-based.
Experiment [23] can be described thus: Plasmodium falciparum Dd2 Sybr green parasite growth Measured in Cell-Based and Microorganism Combination System Using Plate Reader - 2153-01_Inhibitor_Dose_DryPowder_Activity_Set3. It counts as functional.
Experiment [24] is described as follows: P. falciparum ATP4 D1247Y mutant growth inhibitors, dose response, NITD609-resistant line, SYBR Green, dry powder (AID 1159571).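 Further: parasites synchronized at ring stage by sorbitol before testing.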 It counts as functional, cell-based.
Experiment [25] in a line: inhibitors of firefly luciferase expression or activity, dose response, H4 neuroglioma cells, luminescence (AID 1990). It counts as functional, cell-based.
Experiment [26] is described as follows: luciferase reporter signal reduction – luminescence, H4-C neuroglioblastoma cells, dose response (AID 2458).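 Further: H4 neuroglioblastoma cells stably carrying a luciferase reporter gene fusion.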 The class given is functional, cell-based.
Experiment [27] can be described thus: cells. It counts as functional, cell-based.
A short description of experiment [28]: Luminescence Cell-Based Dose Response HTS to Identify Inhibitors of 5'UTR Stem-Loop Driven Prion Protein mRNA Translation in H4 Neuroglioblastoma Cells. [Related pubchem assays: 1827 (Project Summary), 1813 (Primary HTS)]. The class given is functional.
The nature of experiment [29]: inhibitors of SNCA 5'UTR-driven reporter translation, confirmation, H4 neuroglioma cells, luminescence (AID 1988). It counts as functional, cell-based.
Experiment [30] is described as follows: Luminescence-based dose response cell-based high throughput screening assay for cytotoxic compounds using the IEC-6 intestinal epithelial cell line. [Related pubchem assays: 1858 (Summary AID.), 1825 (Counterscreen.), 1907 (Confirmation screen.)]. The class given is functional.
Experiment [31] can be described thus: inhibitors of SNCA 5'UTR-driven translation, confirmation, luminescence, H4 neuroglioblastoma cells, dose confirmation (AID 2454).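 Further: H4 neuroglioblastoma cells carrying an alpha-synuclein 5'UTR luciferase reporter; potency for inhibition of the luciferase signal.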 It counts as functional, cell-based.
For experiment [32], the system named is Vero. Description: cells. The class given is functional, cell-based. The conditions noted are these: Chlorocebus sabaeus.

One may read the IC50 as the midpoint of a concentration-inhibition curve. As a reminder, the AC50 is the concentration giving half of the maximal activity seen. The EC50 is the midpoint of the concentration-response curve. As usually defined, the CC50 is the concentration that lowers cell viability or growth by half.

Mitogen-activated protein kinase 10, sequence (P53779 whole entry): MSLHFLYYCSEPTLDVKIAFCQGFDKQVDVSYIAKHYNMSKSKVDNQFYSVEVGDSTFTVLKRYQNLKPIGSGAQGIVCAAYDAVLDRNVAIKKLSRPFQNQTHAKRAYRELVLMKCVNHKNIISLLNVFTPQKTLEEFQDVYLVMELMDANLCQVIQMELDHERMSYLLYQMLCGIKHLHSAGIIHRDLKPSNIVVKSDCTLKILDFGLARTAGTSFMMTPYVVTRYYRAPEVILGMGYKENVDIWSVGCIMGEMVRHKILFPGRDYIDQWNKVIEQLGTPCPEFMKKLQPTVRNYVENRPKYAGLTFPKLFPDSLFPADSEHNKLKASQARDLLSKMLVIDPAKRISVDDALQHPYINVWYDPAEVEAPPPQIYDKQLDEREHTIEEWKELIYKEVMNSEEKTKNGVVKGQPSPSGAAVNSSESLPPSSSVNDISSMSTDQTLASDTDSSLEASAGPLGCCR
Aryl hydrocarbon receptor, sequence (P35869 whole entry): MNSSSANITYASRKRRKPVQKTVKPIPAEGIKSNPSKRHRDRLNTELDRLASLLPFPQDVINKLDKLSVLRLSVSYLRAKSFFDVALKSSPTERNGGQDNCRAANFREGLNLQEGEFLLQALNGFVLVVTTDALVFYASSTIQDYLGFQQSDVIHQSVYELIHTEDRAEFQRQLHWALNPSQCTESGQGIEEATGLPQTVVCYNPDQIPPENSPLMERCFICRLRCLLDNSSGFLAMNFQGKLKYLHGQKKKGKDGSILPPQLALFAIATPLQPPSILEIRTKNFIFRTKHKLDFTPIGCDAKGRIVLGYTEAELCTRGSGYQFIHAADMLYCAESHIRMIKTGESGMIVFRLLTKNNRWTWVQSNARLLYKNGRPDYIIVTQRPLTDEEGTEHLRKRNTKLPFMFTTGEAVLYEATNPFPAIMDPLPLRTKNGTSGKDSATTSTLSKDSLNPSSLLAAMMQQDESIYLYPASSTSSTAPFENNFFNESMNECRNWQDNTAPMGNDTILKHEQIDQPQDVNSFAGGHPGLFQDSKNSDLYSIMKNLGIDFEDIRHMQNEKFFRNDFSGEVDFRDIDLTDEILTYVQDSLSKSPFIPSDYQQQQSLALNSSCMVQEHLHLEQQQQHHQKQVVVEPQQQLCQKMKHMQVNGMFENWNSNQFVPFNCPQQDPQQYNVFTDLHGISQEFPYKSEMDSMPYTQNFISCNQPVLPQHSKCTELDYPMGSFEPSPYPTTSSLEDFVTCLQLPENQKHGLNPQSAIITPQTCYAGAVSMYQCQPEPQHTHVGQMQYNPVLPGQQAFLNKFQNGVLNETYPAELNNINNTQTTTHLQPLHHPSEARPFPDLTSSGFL
Neuropeptides B/W receptor type 1, sequence (P48145 whole entry): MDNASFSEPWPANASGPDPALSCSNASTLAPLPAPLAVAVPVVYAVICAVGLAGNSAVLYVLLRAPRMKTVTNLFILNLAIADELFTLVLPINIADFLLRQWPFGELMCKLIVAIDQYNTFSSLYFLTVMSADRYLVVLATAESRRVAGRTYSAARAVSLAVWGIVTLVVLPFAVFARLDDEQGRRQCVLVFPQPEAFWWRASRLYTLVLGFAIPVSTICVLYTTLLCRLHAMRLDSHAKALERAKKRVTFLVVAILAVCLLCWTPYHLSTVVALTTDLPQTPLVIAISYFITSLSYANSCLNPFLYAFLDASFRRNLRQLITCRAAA

As to `Cc1c(-c2nc(N)nc(Nc3ccccc3)n2)oc2ccccc12`, the IC50 in experiment [1] was > 93.1 µM (not active); in experiment [2], 7.66 µM (active).
For `Cc1c(-c2nc(-c3ccc(C(C)(C)C)cc3)no2)n(C)oc1=O`, the IC50 in experiment [3] was > 0.003 µM (active). Also, in experiment [4], the AC50 is > 52 µM (inactive).
On to `O=c1c2c3c(sc2[nH]c(=S)n1Cc1ccco1)CCC3`, for which the IC50 in [5] is 77.8 µM (not active); in experiment [6], > 109 µM (not active); in [7], 2.1 µM (active).
For `CN1c2ccccc2Sc2cc(NC(=O)c3ccc(N=[N+]=[N-])cc3)ccc21`, the IC50 in [8] was 17.7 µM (active).
As to `Nc1cccc(Nc2ncnc3ccccc23)c1`, in [9], the EC50 is 3.58 µM (active).
As to `O=C(NC1CCCC1)C(c1ccccc1)N(Cc1ccco1)C(=O)Cc1cccs1` (configuration not stated), the figures for the IC50 in experiment [10] and in [11] were > 43.8 µM (not active) and 4.76 µM (active), respectively.
As to `O=C(c1ccco1)c1cn(Cc2ccccc2)c2ccccc12`, in experiment [12], the CC50 was > 40 µM (active).
Regarding `O=C(Nc1ccc(OCc2ccccc2)cc1)Nc1ccc([N+](=O)[O-])cc1`, in [13], the IC50 is recorded as > 17 µM (not active).
In the case of `O=C(N/N=C/C(Br)=C/c1ccccc1)c1cc(-c2ccco2)[nH]n1`, the CC50 in experiment [14] was 33.1 µM (active). Moreover, the EC50 in [15] and in experiment [16] was > 59.6 µM (inactive) in each case.
Turning to `COc1ccc2c3c([nH]c2c1)[C@H](CO)N(C(C)=O)CC31CCN(C(=O)c2ccc3c(c2)OCO3)CC1`, the AC50 in [17] is 6.93 µM (active).
Take `CCCC(=O)Nc1ccc2c(c1)OC[C@@H](C)N(Cc1cc(F)ccc1F)C[C@@H](C)[C@H](OC)CN(C)C2=O`: the AC50 in experiment [18] was 7.15 µM (active); in experiment [19], > 100 µM (inactive); in [20], 0.978 µM (active); in [21] it was 0.817 µM (active); in [22], 0.322 µM (active); in [23], 2.07 µM (active). For the same molecule, the AC50 in experiment [24] was 2.81 µM (active).
Consider `CN(C)c1ccc(C(=O)c2ccc(N(C)C)c3ccccc23)cc1`, for which the EC50 in experiment [25] is < 0.1 µM (active); in experiment [26], 0.103 µM (active); in experiment [27] it was 0.112 µM (active); in [28], < 0.1 µM (active); in experiment [29], < 0.1 µM (active); in experiment [31] it was 0.118 µM (active). For the same molecule, the values for the IC50 in [30] and in [32] were 0.146 µM (active) and > 25 µM (active), respectively.
